# According to US8592421B2, “Cyclic bioisosters of purine system derivatives and a pharmaceutical composition based thereon” (priority 2003, dated 2013):
# Legend:
# [1] = Morphine abstinence model: thymus condition (mass, nitrites); format: in vivo, rats; details: Administration of morphine; control 230 ± 14
# Description: The spectrometric method is based the reaction of nitrites with the Griss reagent (a mixture of 2% solution of sulfanilamide and 0.2% N-(1-naphthyl)ethylene diamine. At the first step the nitrite reacts with sulfanilamide with formation of diazonium salt, and then with the second component to form azo dye with an adsorption maximum at 540 nm. For reduction of nitrates into nitrites, a fermentative method was used with bacterial reductase nitrate (Grisham M. B. et al., 1995). The samples of plasma and supernathant of the liver deproteinizated at 100° C. for 5 minutes incubated for 30 minutes at 37° C. in 50.0 mM of HEPES pH 7.4 in the presence of 0.2 unit/ml of Aspergillus reductase nitrate, 5.0 mkM of FAD and 0.1 mM of NAD-Ph. At the end of the reaction lactate dehydrogenase and pyruvate were added for isolation of NAD-Ph interfering with the Griss reaction. Then the Griss reagent was added and after 10-minute incubation the light absorption of the samples was measured at 540 nm. To amount of NOX^− was calculated using sodium nitrate as a standard.
# The effect of the compounds according to the invention on the condition of the thymus of the rats was also investigated: a control group, an experimental group of morphinized animals and an experimental group of animals were first morphinized and then injected with the compounds according to the invention. The experiment was carried out similarly to that described above.
# [2] = tested on: Ca^2+-independent isoform NOC; experiment: Morphine abstinence model: calcium-independent NOC in liver; format: in vivo, rats Wistar; details: administration of morphine (FIG. 13)
# [3] = tested on: Ca^2+-dependent isoform NOC; experiment: Morphine abstinence model: calcium-dependent NOC in liver; format: in vivo, rats Wistar; details: administration of morphine (FIG. 13)
# [4] = tested on: synthase of nitrogen oxide (NOC); experiment: Morphine abstinence model: activity of synthase of nitrogen oxide (NOC), radiometric [3H]L-citrulline method; format: in vivo, rats Wistar; details: morphinized rats (FIG. 13)
smiles,measurement,setting,value
"CN1CC[C@]23c4c5ccc(O)c4O[C@H]2[C@@H](O)C=C[C@H]3[C@H]1C5 [Morphine, morphine, reference compound]",Thymus mass,[1],145 ± 9 mg
same,activity of the calcium-independent form NOC in the liver,[2],decrease of activity
same,activity of the calcium-dependent form NOC in the liver,[3],rise of activity
same,total NOC activity in the liver compared to the control,[4],did not change
